Assays:
bedstraw = test: Test B pre/postemergence bedstraw; type: in vivo, Galium aparine
Summary of the method: (§1)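 Response is a visual 0-to-10 score relative to untreated plants, where 0 means no effect and 10 means complete control, taken twelve to sixteen days after application. Treatments went onto soil at planting and onto foliage of 1- to 4-leaf plants, using a surfactant-containing non-phytotoxic solvent.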

blackgrass = test: Test B pre/postemergence blackgrass; type: in vivo, Alopecurus myosuroides
Summary of the method: as §1

surinam grass = test: Test B pre/postemergence surinam grass; type: in vivo, Brachiaria decumbens
Summary of the method: as §1

cocklebur = test: Test B pre/postemergence cocklebur; type: in vivo, Xanthium strumarium
Summary of the method: as §1

corn = test: Test B pre/postemergence corn; type: in vivo, Zea mays
Summary of the method: as §1

crabgrass = test: Test B pre/postemergence crabgrass; type: in vivo, Digitaria sanguinalis
Summary of the method: as §1

giant foxtail = test: Test B pre/postemergence giant foxtail; type: in vivo, Setaria faberii
Summary of the method: as §1

morningglory = test: Test B pre/postemergence morningglory; type: in vivo, Ipomoea hederacea
Summary of the method: as §1

pigweed = test: Test B pre/postemergence pigweed; type: in vivo, Amaranthus retroflexus
Summary of the method: as §1

rape = test: Test B pre/postemergence rape; type: in vivo, Brassica napus
Summary of the method: as §1

soybean = test: Test B pre/postemergence soybean; type: in vivo, Glycine max
Summary of the method: as §1

sugar beet = test: Test B pre/postemergence sugar beet; type: in vivo, Beta vulgaris
Summary of the method: as §1

velvetleaf = test: Test B pre/postemergence velvetleaf; type: in vivo, Abutilon theophrasti
Summary of the method: as §1

wheat = test: Test B pre/postemergence wheat; type: in vivo, Triticum aestivum
Summary of the method: as §1

wild oat = test: Test B pre/postemergence wild oat; type: in vivo, Avena fatua
Summary of the method: as §1

purple nutsedge = test: Test B pre/postemergence purple nutsedge; type: in vivo, Cyperus rotundus
Summary of the method: as §1

[1] = Postemergence, Rate 62 g/ha, scale 0 to 10, 0 is no effect, 10 is complete control
[2] = Postemergence, Rate 125 g/ha, scale of 0 to 10 where 0 is no effect and 10 is complete control
[3] = Preemergence, Rate 250 g/ha, scale 0 (no effect) to 10 (complete control)
[4] = Rate 62 g/ha, Preemergence, scale 0 to 10
[5] = Rate 125 g/ha, Preemergence, scale 0 to 10 (0 no effect, 10 complete control)
[6] = Rate 500 g/ha, Preemergence, scale 0 to 10 (0 no effect, 10 complete control)
[7] = Postemergence, Rate 500 g/ha, scale 0 (no effect) to 10 (complete control)
[8] = Rate 250 g/ha, Postemergence, scale 0 to 10, 0 is no effect, 10 is complete control

COc1ccc(N(C(=O)n2oc(=O)n(C(C)C)c2=O)C(C)C)cc1 [Compound 780]
Plant response rating, Bedstraw (bedstraw; [1]): 0 | Bedstraw plant response rating (bedstraw; [2]): 0 | Bedstraw plant response rating (bedstraw; [3]): 0 | Bedstraw plant response rating (bedstraw; [4]): 0 | Bedstraw plant response rating (bedstraw; [5]): 0 | Bedstraw plant response rating (bedstraw; [6]): 2 | Plant response rating, Blackgrass (blackgrass; [1]): 0 | Blackgrass plant response rating (blackgrass; [2]): 2 | Blackgrass plant response rating (blackgrass; [7]): 4 | Blackgrass plant response rating (blackgrass; [3]): 9 | Blackgrass plant response rating (blackgrass; [4]): 2 | Blackgrass plant response rating (blackgrass; [5]): 6 | Blackgrass plant response rating (blackgrass; [8]): 4 | Blackgrass plant response rating (blackgrass; [6]): 9 | Plant response rating, B. signalgrass (surinam grass; [1]): 0 | B. signalgrass plant response rating (surinam grass; [2]): 5 | B. signalgrass plant response rating (surinam grass; [3]): 8 | B. signalgrass plant response rating (surinam grass; Rate 62 g/ha, Preemergence, scale 0 (no effect) to 10 (complete control)): 6 | B. signalgrass plant response rating (surinam grass; [5]): 6 | B. signalgrass plant response rating (surinam grass; [8]): 5 | B. signalgrass plant response rating (surinam grass; Rate 500 g/ha, Postemergence, scale 0 to 10, 0 is no effect, 10 is complete control): 5 | B. signalgrass plant response rating (surinam grass; [6]): 4 | Plant response rating, Cocklebur (cocklebur; [1]): 0 | Cocklebur plant response rating (cocklebur; [2]): 0 | Cocklebur plant response rating (cocklebur; [7]): 0 | Cocklebur plant response rating (cocklebur; [3]): 2 | Cocklebur plant response rating (cocklebur; [4]): 0 | Cocklebur plant response rating (cocklebur; [5]): 0 | Cocklebur plant response rating (cocklebur; [8]): 0 | Cocklebur plant response rating (cocklebur; [6]): 2 | Plant response rating, Corn (corn; [1]): 0 | Corn plant response rating (corn; [2]): 0 | Corn plant response rating (corn; [7]): 6 | Corn plant response rating (corn; [3]): 6 | Corn plant response rating (corn; [4]): 2 | Corn plant response rating (corn; [5]): 2 | Corn plant response rating (corn; [8]): 3 | Corn plant response rating (corn; [6]): 9 | Plant response rating, Crabgrass (crabgrass; [1]): 3 | Crabgrass plant response rating (crabgrass; [2]): 4 | Crabgrass plant response rating (crabgrass; [7]): 7 | Crabgrass plant response rating (crabgrass; [3]): 10 | Crabgrass plant response rating (crabgrass; [4]): 10 | Crabgrass plant response rating (crabgrass; [5]): 10 | Crabgrass plant response rating (crabgrass; [8]): 7 | Crabgrass plant response rating (crabgrass; [6]): 10 | Plant response rating, Giant foxtail (giant foxtail; [1]): 7 | Giant foxtail plant response rating (giant foxtail; [2]): 8 | Giant foxtail plant response rating (giant foxtail; [7]): 9 | Giant foxtail plant response rating (giant foxtail; [3]): 10 | Giant foxtail plant response rating (giant foxtail; [4]): 10 | Giant foxtail plant response rating (giant foxtail; [5]): 10 | Giant foxtail plant response rating (giant foxtail; [8]): 9 | Giant foxtail plant response rating (giant foxtail; [6]): 10 | Plant response rating, Morningglory (morningglory; [1]): 4 | Morningglory plant response rating (morningglory; [2]): 4 | Morningglory plant response rating (morningglory; [7]): 8 | Morningglory plant response rating (morningglory; [4]): 0 | Morningglory plant response rating (morningglory; [5]): 0 | Morningglory plant response rating (morningglory; [8]): 7 | Morningglory plant response rating (morningglory; [6]): 2 | Plant response rating, Redroot pigweed (pigweed; [1]): 0 | Redroot pigweed plant response rating (pigweed; [2]): 0 | Redroot pigweed plant response rating (pigweed; [7]): 0 | Redroot pigweed plant response rating (pigweed; [4]): 0 | Redroot pigweed plant response rating (pigweed; [5]): 3 | Redroot pigweed plant response rating (pigweed; [8]): 0 | Redroot pigweed plant response rating (pigweed; [6]): 6 | Plant response rating, Rape (rape; [1]): 0 | Rape plant response rating (rape; [2]): 0 | Rape plant response rating (rape; [7]): 0 | Rape plant response rating (rape; [4]): 0 | Rape plant response rating (rape; [5]): 0 | Rape plant response rating (rape; [8]): 0 | Rape plant response rating (rape; [6]): 6 | Plant response rating, Soybean (soybean; [1]): 3 | Soybean plant response rating (soybean; [7]): 4 | Soybean plant response rating (soybean; [4]): 0 | Soybean plant response rating (soybean; [5]): 0 | Soybean plant response rating (soybean; [8]): 0 | Soybean plant response rating (soybean; [6]): 3 | Plant response rating, Sugarbeets (sugar beet; [1]): 0 | Sugarbeets plant response rating (sugar beet; [7]): 0 | Sugarbeets plant response rating (sugar beet; [4]): 2 | Sugarbeets plant response rating (sugar beet; [5]): 2 | Sugarbeets plant response rating (sugar beet; [8]): 0 | Sugarbeets plant response rating (sugar beet; [6]): 6 | Plant response rating, Velvetleaf (velvetleaf; [1]): 0 | Velvetleaf plant response rating (velvetleaf; [7]): 4 | Velvetleaf plant response rating (velvetleaf; [4]): 0 | Velvetleaf plant response rating (velvetleaf; [5]): 3 | Velvetleaf plant response rating (velvetleaf; [8]): 4 | Velvetleaf plant response rating (velvetleaf; [6]): 5 | Plant response rating, Wheat (wheat; [1]): 0 | Wheat plant response rating (wheat; [7]): 2 | Wheat plant response rating (wheat; [4]): 0 | Wheat plant response rating (wheat; [5]): 6 | Wheat plant response rating (wheat; [8]): 0 | Wheat plant response rating (wheat; [6]): 9 | Plant response rating, Wild oats (wild oat; [1]): 0 | Wild oats plant response rating (wild oat; [7]): 2 | Wild oats plant response rating (wild oat; [4]): 0 | Wild oats plant response rating (wild oat; [5]): 0 | Wild oats plant response rating (wild oat; [8]): 2 | Wild oats plant response rating (wild oat; [6]): 9 | Plant response rating, Nutsedge (purple nutsedge; [1]): 0 | Nutsedge plant response rating (purple nutsedge; [2]): 0 | Nutsedge plant response rating (purple nutsedge; [7]): 4 | Nutsedge plant response rating (purple nutsedge; [4]): 0 | Nutsedge plant response rating (purple nutsedge; [5]): 0 | Nutsedge plant response rating (purple nutsedge; [8]): 4

From patent US6737383B1, “Herbicidal oxadiazolidines” (priority 1999, dated 2004)
